This assay deals with T1, 20S catalytic subunit of the proteasome (multicatalytic proteinase complex) (Bos taurus, UniProt Q32KL2).
T1 construct: was purified to homogeneity from bovine brain according to published methods; from tissue; host or cells: bovine brain
Kind of assay: 20S proteasome chymotryptic activity, fluorogenic peptide cleavage. The assay is classed as biochemical, bovine. To be noted: 50 μM succinyl-leu-leu-val-tyr-7-amino-4-methyl coumarin, 15 minutes at 37° C, pH7.5. The procedure:
Compounds of this invention prepared according to the method of Example 1 were tested as follows. The 20S catalytic subunit of the proteasome (also known as the multicatalytic proteinase complex) was purified to homogeneity from bovine brain according to published methods (Wilk S. and Orlowski, M, 40 842 J. Neurochem (1983)). The chymotryptic activity of the complex is measured by the increase in fluorescence following cleavage of the substrate peptide succinyl-leucine-leucine-valine-tyrosine-7-amino-4-methyl coumarin. The standard in vitro assay consists of 2 μg 20S proteasome, 0.1-100 μg/ml proteasome inhibitor in 200 μl 50 mM HEPES, containing 0.1% sodium dodecyl sulphate, pH7.5. The proteolytic reaction is initiated by the addition of 50 μM fluorogenic peptide substrate and allowed to progress for 15 minutes at 37° C. The reaction is terminated by the addition of 100 μl of 100 mM acetate buffer, pH4.0. The rate of proteolysis is directly proportional to the amount of liberated aminomethylcoumarin which is measured by fluorescent spectroscopy (EX 370 nm, EM 430 nm).
As to `COc1ccc2c(c1)C(CC(=O)NC(CC(C)C)C(N)=O)CC2=O` (mixture of isomers) [Compound 1], the half-inhibitory concentration (IC50) was 5 µg/mL. For the compound `COc1ccc2c(c1)C(CC(=O)NC(CC(C)C)C(=O)NC(CC(C)C)C(N)=O)CC2=O` (mixture of isomers) [Compound 2], the IC50 is 1 µg/mL. As for `COc1ccc2c(c1)C(CC(=O)NC(CC(C)C)C(N)=O)CC2=O` (mixture of isomers) [Compound 3], the IC50 was above 10 µg/mL. With `COc1ccc2c(c1)C(CC(=O)NC(CC(C)C)C(=O)NC(Cc1c[nH]cn1)C(N)=O)CC2=O` (mixture of isomers) [Compound 4], the IC50 is above 10 µg/mL. In turn, `COc1ccc2c(c1)C(CC(=O)NC(CC(C)C)C(=O)NC(CC(C)C)C(N)=O)CC2=O` (mixture of isomers) [Compound 5] displayed an IC50 above 10 µg/mL. The same measure for `COc1ccc2c(c1)C(CC(=O)NC(CC(C)C)C(=O)NC(CC(C)C)C(N)=O)CC2=O` (mixture of isomers) [Compound 6]: above 10 µg/mL; for `COc1ccc2c(c1)C(CC(=O)NC(CC(C)C)C(=O)NC(CC(C)C)C(N)=O)CC2=O` (mixture of isomers) [Compound 7]: above 10 µg/mL. On to `CCCCC(NC(=O)CC1CC(=O)c2ccc(OC)cc21)C(N)=O` (mixture of isomers) [Compound 8], for which the 50% inhibitory concentration (IC50) is above 10 µg/mL. The result for `CCCCC(NC(=O)CC1CC(=O)c2ccc(OC)cc21)C(N)=O` (mixture of isomers) [Compound 9] reads above 10 µg/mL; that for `CCCC(NC(=O)CC1CC(=O)c2ccc(OC)cc21)C(N)=O` (mixture of isomers) [Compound 10], above 10 µg/mL.

With `COc1ccc2c(c1)C(CC(=O)NC(CC(C)C)C(=O)NC(C)(C)C(N)=O)CC2=O` (mixture of isomers) [Compound 11], the IC50 is above 10 µg/mL. The result for `COc1ccc2c(c1)C(CC(=O)NC(Cc1ccccc1)C(N)=O)CC2=O` (mixture of isomers) [Compound 12] reads above 10 µg/mL. `COc1ccc2c(c1)C(CC(=O)NC(CC1CCCCC1)C(=O)NC(CC(C)C)C(N)=O)CC2=O` (mixture of isomers) [Compound 13] showed a half-maximal inhibitory concentration (IC50) above 10 µg/mL. In turn, `COc1ccc2c(c1)C(CC(=O)NC(Cc1ccccc1)C(=O)NC(CC(C)C)C(N)=O)CC2=O` (mixture of isomers) [Compound 14] gave an IC50 above 10 µg/mL.

In turn, `CCCCC(NC(=O)CC1CC(=O)c2ccc(OC)cc21)C(=O)NC(CC(C)C)C(N)=O` (mixture of isomers) [Compound 15] yielded an IC50 above 10 µg/mL. Compound `CCCCC(NC(=O)CC1CC(=O)c2ccc(OC)cc21)C(=O)NC(CC(C)C)C(N)=O` (mixture of isomers) [Compound 16] came in with a half-maximal inhibitory concentration (IC50) above 10 µg/mL. The same measure for `COc1ccc2c(c1)C(CC(=O)NC(CC(C)C)C(=O)NC(CC(C)C)C(=O)NCC(N)=O)CC2=O` (mixture of isomers) [Compound 17]: above 10 µg/mL; for `COc1ccc2c(c1)C(CC(=O)NC(CC(C)C)C(=O)NC(CC(C)C)C(=O)NCC(N)=O)CC2=O` (mixture of isomers) [Compound 18]: 5 µg/mL; for `COc1ccc2c(c1)C(CC(=O)NC(CC(C)C)C(=O)NC(CC(C)C)C(=O)NCC(N)=O)CC2=O` (mixture of isomers) [Compound 19]: above 10 µg/mL. In the case of `COc1ccc2c(c1)C(CC(=O)NC(CC(C)C)C(=O)NC(CC(C)C)C(=O)NCC(N)=O)CC2=O` (mixture of isomers) [Compound 21], the IC50 turned out to be 0.1 µg/mL. In turn, `CCCCC(NC(=O)CC1CC(=O)c2ccc(OC)cc21)C(=O)NC(CC(C)C)C(N)=O` (mixture of isomers) [Compound 22] registered an IC50 above 10 µg/mL. Compound `CCCCC(NC(=O)CC1CC(=O)c2ccc(OC)cc21)C(=O)NC(CC(C)C)C(N)=O` (mixture of isomers) [Compound 23] came in with an IC50 above 10 µg/mL.

Values taken from US5834487A, “Inhibition of 26S and 20S proteasome by indanones” (CV Therapeutics, priority 1996, dated 1998).
